What was measured:
Assay type in all cases: physicochemical
[1] = Form E generation attempts via desolvation or heating
Excerpt: These attempts were not successful in providing Form E as a pure crystalline phase. Mixtures primarily composed of Form E and other unidentified crystalline phase(s) were obtained (FIG. 42).
Heat induced crystallization of amorphous GC4711 is described in Table 50.

[2] = Differential scanning calorimetry (DSC); details: −30 to 250° C.
Experimental: DSC was performed using a Mettler-Toledo DSC3+ differential scanning calorimeter. A tau lag adjustment is performed with indium, tin, and zinc. The temperature and enthalpy are adjusted with octane, phenyl salicylate, indium, tin and zinc. The adjustment is then verified with octane, phenyl salicylate, indium, tin, and zinc. The sample was placed into a hermetically sealed aluminum DSC pan, the weight was accurately recorded, and the sample was inserted into the DSC cell. A weighed aluminum pan configured as the sample pan was placed on the reference side of the cell. The pan lid was pierced prior to sample analysis. […]
A cycling DSC experiment was conducted for as-received amorphous, in which the sample was analyzed from −25° C. to 200° C., then cooled to −25° C. and reheated to 250° C. at 10° C./min.

[3] = X-ray powder diffraction (XRPD)
Experimental: XRPD patterns were collected with a PANalytical X'Pert PRO MPD or a PANalytical Empyrean diffractometer using an incident beam of Cu radiation produced using an Optix long, fine-focus source. An elliptically graded multilayer mirror was used to focus Cu Kα X-rays through the specimen and onto the detector. Prior to the analysis, a silicon specimen (NIST SRM 640e or 640f) was analyzed to verify the observed position of the Si 111 peak is consistent with the NIST-certified position. A specimen of the sample was sandwiched between 3-μm-thick films and analyzed in transmission geometry. […]
XRPD patterns were collected with a PANalytical X'Pert PRO MPD diffractometer using an incident beam of Cu Kα radiation produced using a long, fine-focus source and a nickel filter. […] Prior to the analysis, a silicon specimen (NIST SRM 640e or 640f) was analyzed to verify the observed position of the Si 111 peak is consistent with the NIST-certified position. […]
XRPD patterns were collected with a PANalytical X'Pert PRO MPD or a PANalytical Empyrean diffractometer using an incident beam of Cu radiation produced using an Optix long, fine-focus source. […] Prior to the analysis, a silicon specimen (NIST SRM 640e or 640f) was analyzed to verify the observed position of the Si 111 peak is consistent with the NIST-certified position. […]

[4] = Approximate solubility of the starting material at 25° C. and 50° C.
[5] = as above; remark: listed apart in the source
Experimental: About 10 mg of drug substance was weighed to a 2 mL glass vial and aliquot of 20 μL of each solvent will be added to determine solubility at 50° C. Approximate solubility was determined by visual observation.

In the case of `CCC(=O)[O][Mn][O]C(=O)CC.c1cc2nc(c1)CN[C@H]1CCCC[C@@H]1NCCN[C@H]1CCCC[C@@H]1NC2` [Form 8429-39-01], the Observation ([1]; amorphous material (pale light yellow) after held @ 100° C., 5 min.) is reported as 3. peach in color.

With `CCC(=O)[O][Mn][O]C(=O)CC.c1cc2nc(c1)CN[C@H]1CCCC[C@@H]1NCCN[C@H]1CCCC[C@@H]1NC2` [Sample 8429-97-03] the “Result (form)” value ([1]; P2O5, 4 days) was “E + A”.

For `CCC(=O)[O][Mn][O]C(=O)CC.c1cc2nc(c1)CN[C@H]1CCCC[C@@H]1NCCN[C@H]1CCCC[C@@H]1NC2` [Sample 8429-84-01], the “Result (form)” value ([1]; 8429-79-01 and 8429-79-02, Form A + E combined and stored over P2O5, 5 days) was “E + A”.

In the case of `CCC(=O)[O][Mn][O]C(=O)CC.c1cc2nc(c1)CN[C@H]1CCCC[C@@H]1NCCN[C@H]1CCCC[C@@H]1NC2` [Form 8429-73-01], the DSC endotherm onset [2] is reported as “endotherm onset of 232 °C”.

For `CCC(=O)[O][Mn][O]C(=O)CC.c1cc2nc(c1)CN[C@H]1CCCC[C@@H]1NCCN[C@H]1CCCC[C@@H]1NC2` [Sample 8429-73-01], the DSC minor endotherm [2] was “minor endotherm near 197 °C” and the “XRPD Result” value [3] was “Form E + peaks”.

For `CCC(=O)[O][Mn][O]C(=O)CC.c1cc2nc(c1)CN[C@H]1CCCC[C@@H]1NCCN[C@H]1CCCC[C@@H]1NC2` [drug substance], the Solubility ([4]; 2-Propanol, 25° C.) was “S > 285.5 mg/mL”, the Solubility ([4]; Dichloromethane, 25° C.) was “S > 297.5 mg/mL” and the Solubility ([4]; Ethanol, 25° C.) was “S > 322.5 mg/mL”. The Solubility ([4]; Heptane, 25° C.) was “S < 3.7 mg/mL”, the Solubility ([4]; Heptane, 50° C.) was “S < 3.7 mg/mL” and the Solubility ([4]; Methanol, 25° C.) was “S > 306.0 mg/mL”. The Solubility ([4]; Tetrahydrofuran, 25° C.) was “S > 319.0 mg/mL”, the Solubility ([4]; Water, 25° C.) was “S > 314.5 mg/mL” and the Solubility ([5]; 1,4-Dioxane) was “S > 259.5 mg/mL”. The Solubility ([5]; 2-Propanol) was “S > 292.5 mg/mL”, the Solubility ([5]; Acetonitrile) was “S > 315.5 mg/mL” and the Solubility ([5]; Dichloromethane) was “S > 278.5 mg/mL”. For the same compound, the Solubility ([5]; Ethanol) was “S > 281.5 mg/mL”, the Solubility ([5]; Methanol) was “S > 332.0 mg/mL” and the Solubility ([5]; Tetrahydrofuran) was “S > 319.0 mg/mL”. For the same compound, the Solubility ([5]; Water) was “S > 337.5 mg/mL”.

For `CCC(=O)[O][Mn][O]C(=O)CC.c1cc2nc(c1)CN[C@H]1CCCC[C@@H]1NCCN[C@H]1CCCC[C@@H]1NC2` [Sample 8516-07-01], the “Result (form)” value ([1]; 8429-97-01 Forn E + Form A, vacuum dried, ambient, 2 days) was “peaks”.
